Like-named read-outs stand apart in the source and are kept apart here.
What was measured:
[1] = system: RIPK1 phosphorylation and MLKL oligomerization in FADD deficient Jurkat cells; test: Western blot of key proteins in TNFα-induced FADD deficient Jurkat cell programmed necrosis pathway; format: cell-based, human; details: TNFα-stimulated FADD deficient Jurkat cells, FIG. 2
Source text: In order to verify whether the compounds of the present invention can inhibit programmed cell death by inhibiting the activity of RIPK1, and to detect the activation of downstream proteins of programmed necrosis pathway, TNFα was used to stimulate FADD deficient Jurkat to produce programmed necrosis, and the compounds of the present invention were used to treat the cells at the same time. Cells were harvested after a period of time to detect phosphorylation of RIPK1 and oligomerization of MLKL using western blot.
FADD deficient Jurkat cells (human peripheral blood leukemia T cell line) were cultured in vitro. […] The BCA protein quantification kit was used to detect the protein content of each group, and PIPA lysis buffer was used to adjust the protein amount to make the final volume of 100 μL. […]
25 μL of 5* protein loading buffer was added to 100 μL of cell lysate, and the mixture was heated at 95° C. for 10 min After the samples were cooled, electrophoresis was carried out using SDS-PAGE (9%) gel at 60V, and then switched to 120V after 30 min until the leading band was electrophoresed to the bottom of the gel. […] The resulting sample was incubated with ECL luminescent solution and detected the luminescent signal.

FADD−/− Jurkat cells = test: TNF-induced programmed cell necrosis inhibition, Cell Titer-Glo viability; format: cell-based; details: Homo sapiens, Jurkat
In short: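 FADD-deficient Jurkat cells (2.5×10^5/mL) were pretreated 1 h at 37 °C with compound plus Smac (50 nM as added), then stimulated with TNFα (50 ng/mL as added) for 14 h at 37 °C, 5% CO2. Viability was measured as ATP by CellTiter-Glo luminescence, with unstimulated DMSO wells as 100%. EC50 values were derived.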

`Cc1noc([C@@H]2CCCN2C(=O)C(C)(C)Oc2ccc(Cl)cc2)n1` [QY-1-98] was tested, and the “oligomerization of MLKL” value [1] was “can inhibit”, the “phosphorylation of RIPK1” value [1] was “can inhibit the phosphorylation of RIPK1” and the EC50 (FADD−/− Jurkat cells; 14 h, TNFa + SM164, read-out: EC50 inhibitory activity on programmed cell necrosis) was 1.53 µM. For the same compound, the EC50 (FADD−/− Jurkat cells; TNFa, read-out: EC50 inhibitory activity on programmed cell necrosis) was 0.128 µM.

Reference: US12662473B2, “Inhibitors for programmed cell necrosis and preparation method therefor and use thereof” (SHANGHAI INSTITUTE OF ORGANIC CHEMISTRY, CHINESE ACADEMY OF …, priority 2019, dated 2026)
